From ChEMBL document CHEMBL1201862, “PubChem BioAssay data set” (2004) come the findings set out here.

Each structure is given as a SMILES string. The source made the active and inactive calls. For most assays here, no stated cut-off is given here; in the data, actives have a measured EC50 and inactives only a lower limit.

One experiment has as its target Paired box protein Pax-8 (Homo sapiens, UniProt Q06710). The experiment can be described thus: PAX8 transcriptional activity inhibition in RMG-I – RMG-I cells, luciferase, cherry-pick, dose response (AID 687027).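 Further: luciferase reporter driven by Pax8 target thyroperoxidase promoter measured by SteadyGlo luminescence.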 It is filed as functional, cell-based.
The nature of experiment [1]: Luminescence Cell-Based Dose Response HTS to Identify Activators of Luciferase Translation or Activity in H4 […] Cells. [Related pubchem assays: 1829 (Project Summary), 1814 (Primary HTS)]. The experiment is classed as functional.
Experiment [2] is described as follows: Luminescence Cell-Based Dose Confirmation HTS to Identify Activators of 5'UTR Stem-Loop Driven Alpha-Synuclein mRNA Translation in H4 Neuroglioblastoma Cells. [Related pubchem assays: 1829 (Project Summary), 1814 (Primary HTS)]. The experiment is classed as functional.
The test system of a further experiment is H4. Nature of the experiment: Luminescence Cell-Based Dose Response HTS to Identify Activators of 5'UTR Stem-Loop Driven Prion Protein mRNA Translation in H4 Neuroglioblastoma Cells. [Related pubchem assays: 1829 (Project Summary), 1814 (Primary HTS)]. The experiment is classed as functional. Particulars: Homo sapiens.
Experiment [3] can be described thus: cells. The experiment is classed as functional, cell-based.
A short description of experiment [4]: cells. It is filed as functional, cell-based. This is another data set of the same source.
Experiment [5] concerns the target T1, Corticotropin-releasing factor receptor 2/Corticotropin-releasing factor-binding protein (Homo sapiens, UniProt P24387+Q13324).
T1 sequence (Q13324 whole entry): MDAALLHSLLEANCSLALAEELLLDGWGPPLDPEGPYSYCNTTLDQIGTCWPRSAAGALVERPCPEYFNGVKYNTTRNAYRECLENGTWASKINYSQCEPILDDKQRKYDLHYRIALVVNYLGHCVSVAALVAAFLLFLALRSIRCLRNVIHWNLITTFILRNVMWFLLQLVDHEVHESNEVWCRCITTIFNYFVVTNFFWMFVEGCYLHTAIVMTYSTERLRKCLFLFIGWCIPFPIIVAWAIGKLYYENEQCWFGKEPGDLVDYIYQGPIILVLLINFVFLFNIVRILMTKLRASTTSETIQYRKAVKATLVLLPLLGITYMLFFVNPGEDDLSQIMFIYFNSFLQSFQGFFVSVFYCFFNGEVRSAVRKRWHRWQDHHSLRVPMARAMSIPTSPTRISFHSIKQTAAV
T1 sequence (P24387 whole entry): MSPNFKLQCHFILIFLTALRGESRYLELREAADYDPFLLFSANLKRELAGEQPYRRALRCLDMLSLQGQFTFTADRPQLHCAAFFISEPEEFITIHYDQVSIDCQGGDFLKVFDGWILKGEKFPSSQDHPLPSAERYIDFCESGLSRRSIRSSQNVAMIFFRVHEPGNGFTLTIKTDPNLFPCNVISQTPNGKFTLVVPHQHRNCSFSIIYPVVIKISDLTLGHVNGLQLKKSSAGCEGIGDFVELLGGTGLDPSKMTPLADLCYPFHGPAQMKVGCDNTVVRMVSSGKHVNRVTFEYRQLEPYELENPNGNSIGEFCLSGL
The experiment can be described thus: Dose Response confirmation of uHTS hits for small molecule antagonists of the CRF-binding protein and CRF-R2 receptor complex. The following applies: read-out: IC50_Mean. It is filed as functional.

Experiment [6] deals with T1, Corticotropin-releasing factor receptor 2/Corticotropin-releasing factor-binding protein. Nature of the experiment: activators of CRF receptor 2 with binding protein – uHTS hits, confirmation (AID 602473). Particulars: read-out: EC50_Mean. It is filed as functional.
Experiment [7] can be described thus: NIH3T3 cell viability loss – ATP luminescence, mouse fibroblasts, counter-screen, dose response (AID 2010).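 Further: cells exposed to compound for about 90 hours before reading.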 The experiment is classed as functional, cell-based. In general terms: A counterscreen serves to expose hits that act by an unwanted route or on another target.
Experiment [8] is described as follows: Trypanosoma cruzi growth suppression in host cells – NIH3T3 host cells, beta-gal luminescence, confirmation (AID 2044).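 Further: intracellular parasites grown in NIH/3T3 mouse fibroblasts as host cells; luminescent beta-galactosidase reporter signal from transgenic T. cruzi replicating inside host cells; inhibitors lower the luminescence signal.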 It is filed as functional, cell-based.
In a further experiment the target is T2, Protein RecA (Mycobacterium tuberculosis, UniProt P9WHJ3).
T2 sequence (P9WHJ3 whole entry): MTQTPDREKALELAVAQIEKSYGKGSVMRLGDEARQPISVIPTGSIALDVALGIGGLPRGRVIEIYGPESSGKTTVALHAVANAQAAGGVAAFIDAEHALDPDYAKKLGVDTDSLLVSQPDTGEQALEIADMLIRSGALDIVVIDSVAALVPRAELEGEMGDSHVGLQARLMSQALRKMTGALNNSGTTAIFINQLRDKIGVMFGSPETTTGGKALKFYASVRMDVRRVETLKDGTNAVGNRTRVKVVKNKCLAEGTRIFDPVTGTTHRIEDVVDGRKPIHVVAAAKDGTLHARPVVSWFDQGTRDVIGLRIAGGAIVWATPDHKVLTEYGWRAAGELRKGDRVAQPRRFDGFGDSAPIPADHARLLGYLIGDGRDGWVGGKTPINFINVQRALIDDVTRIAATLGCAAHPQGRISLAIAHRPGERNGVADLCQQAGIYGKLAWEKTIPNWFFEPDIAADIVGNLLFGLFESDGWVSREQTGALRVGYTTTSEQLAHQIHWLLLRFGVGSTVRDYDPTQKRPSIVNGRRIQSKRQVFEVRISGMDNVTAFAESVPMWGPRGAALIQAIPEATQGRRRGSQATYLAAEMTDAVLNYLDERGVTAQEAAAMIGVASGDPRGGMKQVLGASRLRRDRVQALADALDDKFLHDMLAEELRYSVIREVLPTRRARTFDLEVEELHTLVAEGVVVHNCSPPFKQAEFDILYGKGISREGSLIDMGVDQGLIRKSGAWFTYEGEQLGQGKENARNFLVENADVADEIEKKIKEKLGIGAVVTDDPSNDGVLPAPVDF
Nature of the experiment: Fluorescence Cell-Free Homogeneous Dose Retest to Identify Inhibitors of RecA-Intein Splicing Activity. [Related pubchem assays (depositor defined):AID2097, AID2223, AID489010, AID492950]. The experiment is classed as functional.

The target of experiment [9] is T3, Replicative DNA helicase DnaB (Mycobacterium tuberculosis, UniProt P9WMR3).
T3 sequence (P9WMR3 whole entry): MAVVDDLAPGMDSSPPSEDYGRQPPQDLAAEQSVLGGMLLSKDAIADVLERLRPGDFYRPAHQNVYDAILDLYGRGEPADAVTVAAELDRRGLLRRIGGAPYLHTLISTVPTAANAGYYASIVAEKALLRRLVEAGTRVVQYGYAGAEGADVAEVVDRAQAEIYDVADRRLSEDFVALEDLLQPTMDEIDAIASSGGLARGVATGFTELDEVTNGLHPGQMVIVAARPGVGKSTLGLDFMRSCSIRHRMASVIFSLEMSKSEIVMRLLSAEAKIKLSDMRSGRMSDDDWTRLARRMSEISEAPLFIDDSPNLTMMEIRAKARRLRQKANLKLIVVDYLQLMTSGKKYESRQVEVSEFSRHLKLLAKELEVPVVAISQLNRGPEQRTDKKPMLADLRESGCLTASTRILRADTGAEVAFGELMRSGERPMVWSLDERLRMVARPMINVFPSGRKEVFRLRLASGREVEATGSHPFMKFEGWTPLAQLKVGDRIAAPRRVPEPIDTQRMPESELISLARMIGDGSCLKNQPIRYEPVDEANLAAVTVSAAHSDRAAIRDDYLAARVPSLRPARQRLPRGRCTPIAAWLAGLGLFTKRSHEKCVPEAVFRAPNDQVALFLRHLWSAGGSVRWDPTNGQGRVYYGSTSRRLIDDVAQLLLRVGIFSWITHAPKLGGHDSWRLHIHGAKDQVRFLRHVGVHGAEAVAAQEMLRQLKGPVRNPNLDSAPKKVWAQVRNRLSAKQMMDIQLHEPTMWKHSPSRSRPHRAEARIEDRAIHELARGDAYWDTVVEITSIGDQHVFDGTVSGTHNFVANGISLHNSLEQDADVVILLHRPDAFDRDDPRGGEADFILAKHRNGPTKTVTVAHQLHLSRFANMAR
The experiment can be described thus: DnaB intein splicing inhibitors, dose response, biochemical, cell-free fluorescence (AID 449749). It is filed as functional.

Paired box protein Pax-8, sequence (Q06710 whole entry): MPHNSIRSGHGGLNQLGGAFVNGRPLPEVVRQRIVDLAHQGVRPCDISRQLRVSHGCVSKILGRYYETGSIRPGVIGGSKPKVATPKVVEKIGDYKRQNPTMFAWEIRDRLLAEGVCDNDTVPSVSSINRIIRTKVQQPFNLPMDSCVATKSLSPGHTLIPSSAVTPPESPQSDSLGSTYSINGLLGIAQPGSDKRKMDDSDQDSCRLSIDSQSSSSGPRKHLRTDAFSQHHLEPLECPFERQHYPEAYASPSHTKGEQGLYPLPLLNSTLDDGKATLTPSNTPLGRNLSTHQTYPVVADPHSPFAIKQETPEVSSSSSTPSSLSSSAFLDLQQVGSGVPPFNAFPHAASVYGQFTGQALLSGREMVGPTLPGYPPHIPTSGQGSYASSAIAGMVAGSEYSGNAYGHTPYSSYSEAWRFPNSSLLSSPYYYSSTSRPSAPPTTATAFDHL

One may read the AC50 as the concentration giving half of the maximal activity seen. In the case of `C[C@@H]1CN([C@@H](C)CO)C(=O)c2cc(NC(=O)Nc3cccc4ccccc34)ccc2O[C@@H]1CN(C)Cc1ccc2c(c1)OCO2`, the AC50 at Paired box protein Pax-8 is 18.5 µM (active).
As to `Cc1c(C(=O)NC(=S)NCC(C)C)oc2ccccc12`, the EC50 was 63.2 µM (active) in [1] and 27.2 µM (active) in experiment [2].
As to `CC1CCCCN1C(=O)CSc1nc2ccsc2c(=O)n1Cc1ccccn1` (configuration not stated), the results for the EC50 (in experiment [1]; in the experiment on H4; in experiment [2]) were 5.86 µM (active), 9.84 µM (active) and 46.3 µM (active), respectively.
On to `CC(=O)Cn1c(=O)c2c(nc3n2CCCN3Cc2ccccc2)n(C)c1=O`, for which the EC50 in “cells [3]” and in the experiment “cells [4]” was > 350 µM (not active) throughout.
Take `NC(Cc1ccccc1Sc1ccccc1)=NO`: the IC50 in experiment [5] was > 47.1 µM (inactive). Moreover, the EC50 in experiment [6] was > 53 µM (inactive).
With `CCCCn1c(=O)c2c(=O)cc(O)oc2c2ccccc21`, the EC50 in the experiment “cells [3]” and in “cells [4]” was > 350 µM (not active) in each case.
`CCOC(=O)N1CCN(C(=O)CCNS(=O)(=O)c2ccc3c(c2)c(=O)n(C)c(=O)n3C)CC1`: the EC50 (in [1]; in the experiment on H4; in experiment [2]) was > 120 µM (not active) in each case.
For the molecule `O=C1CCCC/C1=C/Nc1ccc2c(c1)OCO2`, the EC50 in [1] was 7.34 µM (active); in the experiment on H4, > 120 µM (not active); in [2] it was 8.5 µM (active).
As for `C[C@@H]1CCCCO[C@H](CN(C)C(=O)Nc2ccc(C(F)(F)F)cc2)[C@@H](C)CN([C@@H](C)CO)C(=O)c2cc(NS(=O)(=O)c3ccccc3)ccc2O1`, the AC50 at Paired box protein Pax-8 is 3.24 µM (active).
Turning to `Cc1ccc(-c2nn(-c3ccccc3)cc2/C=N/n2c(S)nnc2-c2ccncc2)cc1`, the results for the EC50 (in experiment [1]; with H4; in experiment [2]) were 34.3 µM (active), 34.1 µM (active) and > 120 µM (not active), respectively.
With `COc1ccc(CCN2CCCC(CN(C)C(=O)c3cc(C)oc3C)C2)cc1` (configuration not stated), the EC50 in [1] was 31.9 µM (active); in experiment [7] it was > 60 µM (not active); with H4, 32.7 µM (active); in experiment [8], 149 nM (active); in [2] it was 41.5 µM (active).
Regarding `COc1ccc2ccccc2c1CNCCCN1CCOCC1`, the IC50 in experiment [5] is > 47.1 µM (inactive). Besides, in experiment [6], the EC50 was > 53 µM (inactive).
The like results for `COc1cc(CCC(=O)NC2(C)CCS(=O)(=O)C2)cc(OC)c1OC` (configuration not stated) were, in that order, > 47.1 µM (inactive) and > 53 µM (inactive).
Regarding `Cc1ccc(C(=O)NC(=S)NCC2CCCO2)cc1Br` (configuration not stated), the results for the EC50 (in experiment [1]; in the experiment with H4; in [2]) were 21 µM (active), 45.5 µM (active) and 11 µM (active), respectively.
On to `CCN1CCN(C(=O)C2=CC(c3ccc(OC)cc3)=NS(=O)(=O)N2C)CC1`, for which, in experiment [5], the IC50 is > 47.1 µM (inactive). Further, the EC50 in [6] was > 53 µM (inactive).
Take `COc1cc2c(c(OC)c1OC)-c1ccc(SC)c(=O)cc1C(NC=O)CC2` (configuration not stated): the AC50 on Paired box protein Pax-8 is < 0.26 µM (active).
On to `c1ccc2c(c1)oc1c(NCC3CCCO3)ncnc12` (configuration not stated), for which the EC50 in [1] was 19 µM (active); in the experiment on H4 it was 7.09 µM (active); in experiment [2], 8.39 µM (active).
For `CCc1c(C)nc2ncnn2c1Nc1ccc(C(C)=O)cc1`, in that order: 92 µM (active), 57.4 µM (active) and 34.4 µM (active).
The like results for `CC(C)c1ccc(NCCC(=O)c2cccs2)cc1` were, in that order, 33.1 µM (active), 61.8 µM (active) and 4.14 µM (active).
Consider `COc1cccc(CNC(=O)C2CCC(=O)N(CC3CCCCC3)C2)c1OC` (configuration not stated), for which the IC50 in experiment [5] was > 47.1 µM (inactive). For the same molecule, in experiment [6], the EC50 is > 53 µM (inactive).
Regarding `Cc1ccsc1C1Nc2ccccc2-c2nc3ccccc3n21` (configuration not stated), the EC50 is 60.7 µM (active) in experiment [1], 26.1 µM (active) in the experiment on H4 and 24.3 µM (active) in experiment [2].
Turning to `COc1ccc(S(=O)(=O)N2CCOCC2)cc1NC(=O)CC1CC2CCC1C2` (configuration not stated), the IC50 in experiment [5] is > 47.1 µM (inactive). The EC50 in experiment [6] is > 53 µM (inactive).
On to `CN(Cc1cccs1)C(=O)Cc1csc(-c2ccccc2)n1`, for which the results for the EC50 (in experiment [1]; in the experiment on H4; in experiment [2]) were 10.1 µM (active), 15.9 µM (active) and 32 µM (active), respectively.
Regarding `COc1ccc(OC)c(C(=O)Cn2nnc(-c3ccc(N4CCOCC4)cc3)n2)c1`, the EC50 (in experiment [1]; in the experiment with H4; in experiment [2]) was > 120 µM (not active) throughout.
On to `COc1ccc(NC(=O)CSc2nnc(N)s2)c([N+](=O)[O-])c1`, for which the IC50 in experiment [5] was > 47.1 µM (inactive). For the same molecule, the EC50 in experiment [6] is > 53 µM (inactive).
For `Cc1ccc(NC(=O)c2cc(NC(=O)/C=C\C(=O)O)ccc2N2CCCCC2)cc1`, the IC50 in [5] is > 47.1 µM (inactive). Moreover, the EC50 is 9.32 µM (active) on Protein RecA and > 53 µM (inactive) in [6]. Moreover, the AC50 in [9] is 14.4 µM (active).
For the molecule `COCCn1c(SCC(=O)c2ccc3c(c2)OCCO3)nnc1-c1ccco1`, in [5], the IC50 is > 47.1 µM (inactive). Besides, the EC50 in experiment [6] is > 53 µM (inactive).
